From patent US10138222B2, “Substituted benzamides as RIPK2 inhibitors” (Boehringer Ingelheim International GmbH, priority 2016, dated 2018)

target: RIPK2 (Homo sapiens (Human), UniProt O43353); assay: RIPK2 inhibition, ADP-Glo Kinase Assay; assay type: biochemical; conditions: 8His-RIPK2 FL enzyme 8 nM, ATP 5 μM, 15 minutes pre-incubation, 60 minutes at 37° C., luminescence
Method in brief: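 Full-length 8His-RIPK2 (8 nM) preincubated 15 min at RT with compound (1% DMSO), then 5 μM ATP added for 60 min at 37 °C in HEPES pH 7.5 buffer with Mg2+/Mn2+. ADP measured by ADP-Glo luminescence; activity expressed as % of vehicle control, no-enzyme wells as low control.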

Chain of RIPK2 (O43353 whole entry): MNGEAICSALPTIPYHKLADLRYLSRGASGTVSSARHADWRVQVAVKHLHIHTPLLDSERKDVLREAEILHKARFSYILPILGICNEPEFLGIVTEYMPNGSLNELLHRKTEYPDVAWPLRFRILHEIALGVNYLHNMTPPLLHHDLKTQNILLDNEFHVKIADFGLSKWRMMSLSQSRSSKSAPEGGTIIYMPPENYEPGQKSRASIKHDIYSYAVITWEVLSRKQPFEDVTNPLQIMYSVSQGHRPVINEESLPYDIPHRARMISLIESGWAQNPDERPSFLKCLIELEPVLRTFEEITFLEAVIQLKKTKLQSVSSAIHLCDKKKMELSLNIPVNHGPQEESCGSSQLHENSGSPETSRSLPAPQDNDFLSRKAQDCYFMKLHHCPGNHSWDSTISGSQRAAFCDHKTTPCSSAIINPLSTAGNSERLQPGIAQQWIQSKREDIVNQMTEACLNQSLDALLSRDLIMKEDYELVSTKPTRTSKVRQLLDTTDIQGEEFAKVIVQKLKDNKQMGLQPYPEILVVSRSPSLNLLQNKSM

Structure (SMILES)	IC50 [nM]
Cc1ccc(C(=O)NC2CC2)cc1-c1cnn(-c2cncc(OCC3CC3)c2)c1 [Example 146, N-cyclopropyl-3-{1-[5-(cyclopropylmethoxy)pyridin-3-yl]-1H-pyrazol-4-yl}-4-methyl-benzamide]	6.1
Cc1ccc(C(=O)NC2CC2)cc1-c1cnn(-c2cncc(OCC3CCOCC3)c2)c1 [Example 147, N-cyclopropyl-4-methyl-3-{1-[5-(oxan-4-ylmethoxy)pyridin-3-yl]-1H-pyrazol-4-yl}benzamide]	8.1
Cc1ccc(C(=O)NC2CC2)cc1-c1cnn(-c2cncc(OC3CCCC3)c2)c1 [Example 148, 3-{1-[5-(cyclopentyloxy)pyridin-3-yl]-1H-pyrazol-4-yl}-N-cyclopropyl-4-methylbenzamide]	12
CC(=O)N1CCC(Oc2cncc(-n3cc(-c4cc(C(=O)NC5CC5)ccc4C)cn3)c2)CC1 [Example 149, 3-(1-{5-[(1-acelylpiperidin-4-yl)oxy]pyridin-3-yl}-1H-pyrazol-4-yl)-N-cyclopropyl-4-methyl-benzamide]	8.9
Cc1ccc(C(=O)NC2CC2)cc1-c1cnn(-c2cncc(OC[C@H]3CCCO3)c2)c1 [Example 150, N-cyclopropyl-4-methyl-3-(1-{5-[(2R)-oxolan-2-ylmethoxy]pyridin-3-yl}-1H-pyrazol-4-yl) benzamide]	7
Cc1ccc(C(=O)NC2CC2)cc1-c1cnn(-c2cncc(OC3CCC(C#N)C3)c2)c1 (centres unmarked) [Example 151, 3-(1-{5-[(3-cyanocyclopentyl)oxy]pyridin-3-yl}-1H-pyrazol-4-yl)-N-cyclopropyl-4-methylbenzamide]	6.4
Cc1ccc(C(=O)NC2CC2)cc1-c1cnn(-c2cncc(OC3CC(CO)(CO)C3)c2)c1 [Example 152, 3-(1-{5-[3,3-bis(hydroxymethyl)cyclobutoxy]pyridin-3-yl}-1H-pyrazol-4-yl)-N-cyclopropyl-4-methylbenzamide]	4.2
Cc1ccc(C(=O)NC2CC2)cc1-c1cnn(-c2cncc(NC3CCN(C(C)CCO)CC3)c2)c1 (centres unmarked) [Example 153, N-cyclopropyl-3-[1-(5-{[1-(4-hydroxybutan-2-yl)piperidin-4-yl]amino}pyridin-3-yl)-1H-pyrazol-4-yl]-4-methylbenzamide]	1.6
Cc1ccc(C(=O)NC2CC2)cc1-c1cnn(-c2cncc(NC3CCN(CC4CCOC4)CC3)c2)c1 (centres unmarked) [Example 154, N-cyclopropyl-4-methyl-3-[1-(5-{[1-(oxolan-3-ylmethyl)piperidin-4-yl]amino}pyridin-3-yl)-1H-pyrazol-4-yl]benzamide]	1.8
Cc1ccc(C(=O)NC2CC2)cc1-c1cnn(-c2cncc(NC3CCN(CC4CCOCC4)CC3)c2)c1 [Example 155, N-cyclopropyl-4-methyl-3-[1-(5-{[1-(oxan-4-ylmethyl)piperidin-4-yl]amino}pyridin-3-yl)-1H-pyrazol-4-yl]benzamide]	1.7
COCC(C)N1CCC(Nc2cncc(-n3cc(-c4cc(C(=O)NC5CC5)ccc4C)cn3)c2)CC1 (centres unmarked) [Example 156, N-cyclopropyl-3-[1-(5-{[1-(1-methoxypropan-2-yl)piperidin-4-yl]amino}pyridin-3-yl)-1H-pyrazol-4-yl]-4-methylbenzamide]	1.6
Cc1ccc(C(=O)NC2CC2)cc1-c1cnn(-c2cncc(NC3CCN(C(C)CO)CC3)c2)c1 (centres unmarked) [Example 157, N-cyclopropyl-3-[1-(5-{[1-(1-hydroxypropan-2-yl)piperidin-4-yl]amino}pyridin-3-yl)-1H-pyrazol-4-yl]-4-methylbenzamide]	1.9
CC(=O)N1CCC(N2CCC(Nc3cncc(-n4cc(-c5cc(C(=O)NC6CC6)ccc5C)cn4)c3)CC2)CC1 [Example 158, 3-[1-(5-{[1-(1-acetylpiperidin-4-yl)piperidin-4-yl]amino}pyridin-3-yl)-1H-pyrazol-4-yl]-N-cyclopropyl-4-methylbenzamide]	1.2
Cc1ccc(C(=O)NC2CC2)cc1-c1cnn(-c2cncc(NC3CCN(C4CCOC4C)CC3)c2)c1 (centres unmarked) [Example 159, N-cyclopropyl-4-methyl-3-[1-(5-{[1-(2-methyloxolan-3-yl)piperidin-4-yl]amino}pyridin-3-yl)-1H-pyrazol-4-yl]benzamide]	1.8
COC1CCC(N2CCC(Nc3cncc(-n4cc(-c5cc(C(=O)NC6CC6)ccc5C)cn4)c3)CC2)CC1 (centres unmarked) [Example 160, N-cyclopropyl-3-[1-(5-{[1-(4-methoxycyclohexyl)piperidin-4-yl]amino}pyridin-3-yl)-1H-pyrazol-4-yl]-4-methylbenzamide]	1.1
Cc1ccc(C(=O)NC2CC2)cc1-c1cnn(-c2cncc(NC3CCN(C4CCCOC4)CC3)c2)c1 (centres unmarked) [Example 161, N-cyclopropyl-4-methyl-3-[1-(5-{[1-(oxan-3-yl)piperidin-4-yl]amino}pyridin-3-yl)-1H-pyrazol-4-yl] benzamide]	1.5
Cc1ccc(C(=O)NC2CC2)cc1-c1cnn(-c2cncc(NC3CCN(C4CCOCC4)CC3)c2)c1 [Example 162, N-cyclopropyl-4-methyl-3-[1-(5-{[1-(oxan-4-yl)piperidin-4-yl]amino}pyridin-3-yl)-1H-pyrazol-4-yl] benzamide]	2.3
COC1COCCC1N1CCC(Nc2cncc(-n3cc(-c4cc(C(=O)NC5CC5)ccc4C)cn3)c2)CC1 (centres unmarked) [Example 163, N-cyclopropyl-3-[1-(5-{[1-(3-methoxyoxan-4-yl)piperidin-4-yl]amino}pyridin-3-yl)-1H-pyrazol-4-yl]-4-methylbenzamide]	1.1
Cc1ccc(C(=O)NC2CC2)cc1-c1cnn(-c2cncc(NC3CCN(C4CCOCC4C)CC3)c2)c1 (centres unmarked) [Example 164, N-cyclopropyl-4-methyl-3-[1-(5-{[1-(3-methyloxan-4-yl)piperidin-4-yl]amino}pyridin-3-yl)-1H-pyrazol-4-yl]benzamide]	2.1
Cc1ccc(C(=O)NC2CC2)cc1-c1cnn(-c2cncc(NC3CCN(C4CCOC(C)C4)CC3)c2)c1 (centres unmarked) [Example 165, N-cyclopropyl-4-methyl-3-[1-(5-{[1-(2-methyloxan-4-yl)piperidin-4-yl]amino}pyridin-3-yl)-1H-pyrazol-4-yl]benzamide]	1.2
Cc1ccc(C(=O)NC2CC2)cc1-c1cnn(-c2cncc(NC3CCN(C4CCOC4)CC3)c2)c1 (centres unmarked) [Example 166, N-cyclopropyl-4-methyl-3-[1-(5-{[1-(oxolan-3-yl)piperidin-4-yl]amino}pyridin-3-yl)-1H-pyrazol-4-yl] benzamide]	0.94
Cc1ccc(C(=O)NC2CC2)cc1-c1cnn(-c2cncc(NC3CCN(CC4C5COCC54)CC3)c2)c1 (centres unmarked) [Example 167, N-cyclopropyl-4-methyl-3-(1-{5-[(1-{3-oxabicyclo[3.1.0]hexan-6-ylmethyl}piperidin-4-yl)amino]pyridin-3-yl}-1H-pyrazol-4-yl) benzamide]	1
Cc1ccc(C(=O)NC2CC2)cc1-c1cnn(-c2cncc(NC3CCN(CC4COCCO4)CC3)c2)c1 (centres unmarked) [Example 168, N-cyclopropyl-3-[1-(5-{[1-(1,4-dioxan-2-ylmethyl)piperidin-4-yl]amino}pyridin-3-yl)-1H-pyrazol-4-yl]-4-methylbenzamide]	0.95
Cc1cc(F)c(C(=O)NC2CC2)cc1-c1cnn(-c2cncc(N[C@H]3CCN(C)C[C@H]3F)c2)c1 [Example 169]	1.3
Cc1cc(F)c(C(=O)NC2CC2)cc1-c1cnn(-c2cncc(N[C@@H]3CCN(C)C[C@@H]3F)c2)c1 [Example 170]	1.8
Cc1cc(F)c(C(=O)NC2CC2)cc1-c1cnn(-c2cncc(N3CCC(N(C)C)CC3)c2)c1 [Example 171, N-Cyclopropyl-5-[1-(4-dimethyl-amino-3,4,5,6-tetrahydro-2H-[1,3″]bipyridinyl-5″-yl)-1H-pyrazol-4-yl]-2-fluoro-4-methyl-benzamide]	1.4
Cc1cc(F)c(C(=O)NC2CC2)cc1-c1cnn(-c2cncc(OC[C@H]3CCN(C)C3)c2)c1 [Example 172, N-Cyclopropyl-2-fluoro-4-methyl-5-{1-[5-((S)-1-methyl-pyrrolidin-3-ylmethoxy)-pyridin-3-yl]-1H-pyrazol-4-yl}-benzamide]	1.8
CO[C@@H]1CN(C)CC[C@@H]1Nc1cncc(-n2cc(-c3cc(C(=O)NC4CC4)c(F)cc3Cl)cn2)c1 [Example 173, 4-Chloro-N-cyclopropyl-2-fluoro-5-{1-[5-((3R,4S)-3-methoxy-1-methyl-piperidin-4-ylamino)-pyridin-3-yl]-1H-pyrazol-4-yl}-benzamide]	1.8
Cc1cc(F)c(C(=O)NC2CC2)cc1-c1cnn(-c2cncc(NC3CCN(CCF)CC3)c2)c1 [Example 174, N-Cyclopropyl-2-fluoro-5-(1-{5-[1-(2-fluoro-ethyl)-piperidin-4-ylamino]-pyridin-3-yl}-1H-pyrazol-4-yl)-4-methyl-benzamide]	1.5
